Test results taken from ChEMBL document CHEMBL5465560, “Selectivity Literature for EUbOPEN Chemogenomic Library” (2024).

How the values were obtained:
[1] = target: Mitogen-activated protein kinase kinase kinase kinase 4 (Homo sapiens, UniProt O95819); conditions: at 10 µM
[2] = target: Tyrosine-protein kinase Lyn (Homo sapiens, UniProt P07948); assay: Selectivity interaction (KinomeScan (DiscoverX)) EUB0000229b LYN; conditions: at 10 µM
[3] = target: Myosin-IIIa (Homo sapiens) (UniProt Q8NEV4); assay: Selectivity interaction (KinomeScan (DiscoverX)) EUB0000655a MYO3A; conditions: at 10 µM
[4] = target: Serine/threonine-protein kinase 38-like (Homo sapiens) (UniProt Q9Y2H1); assay: Selectivity interaction (Kinase panel (KiNativ target engagement assay in Jurkat cells)) EUB0001635a STK38L; assay type: cell-based; conditions: Selectivity number of off-targets 0.0, Selectivity number of targets 233.0, Source Knowledge https://www.sciencedirect.com/science/article/pii/S2451945619300674?via%3Dihub, at 1 µM
[5] = target: Serine/threonine-protein kinase SIK1 (Homo sapiens) (UniProt P57059); assay: Selectivity interaction (KinomeScan (DiscoverX)) EUB0000695a SIK1; conditions: at 100 nM
[6] = target: Serine/threonine-protein kinase SIK3 (Homo sapiens) (UniProt Q9Y2K2); assay: Selectivity interaction (KinomeScan (DiscoverX)) EUB0000595a SIK3; conditions: at 10 µM
[7] = target: T1, Non-receptor tyrosine-protein kinase TNK1 (Homo sapiens) (UniProt Q13470); assay: Selectivity interaction (Kinase panel (Carna Biosciences)) EUB0001542aTs TNK1; conditions: at 1 µM
T1 sequence (whole entry): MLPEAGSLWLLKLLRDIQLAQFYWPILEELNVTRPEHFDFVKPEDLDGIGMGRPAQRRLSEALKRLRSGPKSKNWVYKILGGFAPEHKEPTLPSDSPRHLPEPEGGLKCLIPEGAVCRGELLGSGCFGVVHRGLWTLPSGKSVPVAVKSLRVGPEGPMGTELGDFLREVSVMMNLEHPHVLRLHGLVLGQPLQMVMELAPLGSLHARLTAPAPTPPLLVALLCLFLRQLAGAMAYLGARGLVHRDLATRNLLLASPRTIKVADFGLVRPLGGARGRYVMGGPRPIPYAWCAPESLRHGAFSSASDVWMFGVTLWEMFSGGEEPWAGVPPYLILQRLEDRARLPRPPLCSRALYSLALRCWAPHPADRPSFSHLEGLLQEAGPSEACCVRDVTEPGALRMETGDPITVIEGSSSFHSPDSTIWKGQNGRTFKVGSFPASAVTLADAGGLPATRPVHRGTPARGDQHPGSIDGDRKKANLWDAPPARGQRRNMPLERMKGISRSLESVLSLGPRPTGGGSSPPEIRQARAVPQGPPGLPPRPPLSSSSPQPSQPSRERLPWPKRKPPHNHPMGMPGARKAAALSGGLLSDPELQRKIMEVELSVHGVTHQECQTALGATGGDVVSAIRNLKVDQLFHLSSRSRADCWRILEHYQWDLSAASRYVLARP

[8] = target: T2, Serine/threonine-protein kinase D1 (Homo sapiens) (UniProt Q15139); assay: Selectivity interaction (Kinase screening (Nanosyn)) EUB0000604a PRKD1
T2 sequence (whole entry): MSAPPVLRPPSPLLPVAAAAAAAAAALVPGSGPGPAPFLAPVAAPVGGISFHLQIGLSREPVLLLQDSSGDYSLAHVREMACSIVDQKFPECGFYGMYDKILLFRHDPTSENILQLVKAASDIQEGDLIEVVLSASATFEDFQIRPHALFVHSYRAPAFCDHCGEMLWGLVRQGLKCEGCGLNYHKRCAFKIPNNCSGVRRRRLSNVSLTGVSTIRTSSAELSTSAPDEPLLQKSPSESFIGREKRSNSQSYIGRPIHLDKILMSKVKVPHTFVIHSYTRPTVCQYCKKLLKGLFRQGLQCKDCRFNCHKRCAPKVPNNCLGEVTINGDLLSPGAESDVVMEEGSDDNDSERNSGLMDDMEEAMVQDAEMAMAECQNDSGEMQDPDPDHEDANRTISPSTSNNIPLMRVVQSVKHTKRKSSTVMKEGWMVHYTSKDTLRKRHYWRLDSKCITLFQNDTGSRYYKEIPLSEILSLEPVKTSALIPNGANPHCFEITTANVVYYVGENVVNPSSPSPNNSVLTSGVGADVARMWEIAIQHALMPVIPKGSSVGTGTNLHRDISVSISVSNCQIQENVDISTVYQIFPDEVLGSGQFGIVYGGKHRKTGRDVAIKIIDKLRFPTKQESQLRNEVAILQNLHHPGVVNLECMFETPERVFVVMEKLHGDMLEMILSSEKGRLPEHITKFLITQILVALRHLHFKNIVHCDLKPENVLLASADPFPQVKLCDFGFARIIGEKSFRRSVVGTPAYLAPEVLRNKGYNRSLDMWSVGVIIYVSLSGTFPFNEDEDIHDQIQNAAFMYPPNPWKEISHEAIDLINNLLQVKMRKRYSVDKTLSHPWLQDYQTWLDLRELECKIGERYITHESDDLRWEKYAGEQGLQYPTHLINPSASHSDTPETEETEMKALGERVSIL

Sequence of Serine/threonine-protein kinase SIK1 (Homo sapiens) (P57059 whole entry): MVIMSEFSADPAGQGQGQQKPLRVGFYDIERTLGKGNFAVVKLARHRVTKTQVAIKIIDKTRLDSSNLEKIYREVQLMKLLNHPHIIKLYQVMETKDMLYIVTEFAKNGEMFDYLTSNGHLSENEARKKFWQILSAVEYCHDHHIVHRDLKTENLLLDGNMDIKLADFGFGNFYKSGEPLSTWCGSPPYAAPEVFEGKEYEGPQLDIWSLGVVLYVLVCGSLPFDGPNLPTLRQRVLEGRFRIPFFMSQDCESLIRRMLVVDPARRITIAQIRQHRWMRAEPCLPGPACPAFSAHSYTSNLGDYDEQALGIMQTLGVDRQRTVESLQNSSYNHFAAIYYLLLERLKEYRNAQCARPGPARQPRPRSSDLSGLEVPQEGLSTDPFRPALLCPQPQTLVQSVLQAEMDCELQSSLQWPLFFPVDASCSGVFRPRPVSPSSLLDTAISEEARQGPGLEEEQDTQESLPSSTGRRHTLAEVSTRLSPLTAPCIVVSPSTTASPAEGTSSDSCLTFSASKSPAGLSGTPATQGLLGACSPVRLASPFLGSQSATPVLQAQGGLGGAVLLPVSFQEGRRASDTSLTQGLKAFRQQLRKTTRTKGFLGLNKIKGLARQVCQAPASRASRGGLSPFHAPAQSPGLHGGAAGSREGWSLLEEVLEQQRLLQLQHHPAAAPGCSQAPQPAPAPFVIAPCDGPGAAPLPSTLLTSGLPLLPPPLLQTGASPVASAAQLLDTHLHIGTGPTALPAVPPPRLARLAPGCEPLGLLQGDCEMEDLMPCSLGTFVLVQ
Sequence of Tyrosine-protein kinase Lyn (P07948 2-512 limits assumed): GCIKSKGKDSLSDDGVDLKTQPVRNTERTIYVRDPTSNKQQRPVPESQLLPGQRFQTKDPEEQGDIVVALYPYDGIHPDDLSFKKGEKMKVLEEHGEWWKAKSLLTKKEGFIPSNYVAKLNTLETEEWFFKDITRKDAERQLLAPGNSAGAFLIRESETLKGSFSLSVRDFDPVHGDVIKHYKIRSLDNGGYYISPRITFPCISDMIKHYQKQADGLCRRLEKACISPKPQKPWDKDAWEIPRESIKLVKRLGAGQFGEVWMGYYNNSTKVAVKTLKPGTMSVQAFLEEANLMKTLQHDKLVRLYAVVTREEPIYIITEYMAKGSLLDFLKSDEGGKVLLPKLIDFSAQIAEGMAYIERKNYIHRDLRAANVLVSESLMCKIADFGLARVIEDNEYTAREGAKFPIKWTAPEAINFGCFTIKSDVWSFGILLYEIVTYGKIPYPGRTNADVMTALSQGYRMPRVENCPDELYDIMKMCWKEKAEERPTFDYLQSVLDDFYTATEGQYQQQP
Sequence of Serine/threonine-protein kinase 38-like (Homo sapiens) (Q9Y2H1 2-464 limits assumed): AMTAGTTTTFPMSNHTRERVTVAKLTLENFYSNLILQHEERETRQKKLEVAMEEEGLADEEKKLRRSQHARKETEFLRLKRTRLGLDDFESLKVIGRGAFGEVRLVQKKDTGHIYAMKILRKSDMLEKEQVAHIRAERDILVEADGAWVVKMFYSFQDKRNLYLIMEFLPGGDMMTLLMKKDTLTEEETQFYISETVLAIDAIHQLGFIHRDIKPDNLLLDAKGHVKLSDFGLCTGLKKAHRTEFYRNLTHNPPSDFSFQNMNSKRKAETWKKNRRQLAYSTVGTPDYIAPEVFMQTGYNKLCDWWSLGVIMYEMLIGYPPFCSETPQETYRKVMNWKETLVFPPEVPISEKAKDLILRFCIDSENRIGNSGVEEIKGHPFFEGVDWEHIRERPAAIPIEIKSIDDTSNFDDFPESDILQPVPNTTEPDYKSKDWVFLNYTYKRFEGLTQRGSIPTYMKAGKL
Sequence of Serine/threonine-protein kinase SIK3 (Homo sapiens) (Q9Y2K2 whole entry, looked up): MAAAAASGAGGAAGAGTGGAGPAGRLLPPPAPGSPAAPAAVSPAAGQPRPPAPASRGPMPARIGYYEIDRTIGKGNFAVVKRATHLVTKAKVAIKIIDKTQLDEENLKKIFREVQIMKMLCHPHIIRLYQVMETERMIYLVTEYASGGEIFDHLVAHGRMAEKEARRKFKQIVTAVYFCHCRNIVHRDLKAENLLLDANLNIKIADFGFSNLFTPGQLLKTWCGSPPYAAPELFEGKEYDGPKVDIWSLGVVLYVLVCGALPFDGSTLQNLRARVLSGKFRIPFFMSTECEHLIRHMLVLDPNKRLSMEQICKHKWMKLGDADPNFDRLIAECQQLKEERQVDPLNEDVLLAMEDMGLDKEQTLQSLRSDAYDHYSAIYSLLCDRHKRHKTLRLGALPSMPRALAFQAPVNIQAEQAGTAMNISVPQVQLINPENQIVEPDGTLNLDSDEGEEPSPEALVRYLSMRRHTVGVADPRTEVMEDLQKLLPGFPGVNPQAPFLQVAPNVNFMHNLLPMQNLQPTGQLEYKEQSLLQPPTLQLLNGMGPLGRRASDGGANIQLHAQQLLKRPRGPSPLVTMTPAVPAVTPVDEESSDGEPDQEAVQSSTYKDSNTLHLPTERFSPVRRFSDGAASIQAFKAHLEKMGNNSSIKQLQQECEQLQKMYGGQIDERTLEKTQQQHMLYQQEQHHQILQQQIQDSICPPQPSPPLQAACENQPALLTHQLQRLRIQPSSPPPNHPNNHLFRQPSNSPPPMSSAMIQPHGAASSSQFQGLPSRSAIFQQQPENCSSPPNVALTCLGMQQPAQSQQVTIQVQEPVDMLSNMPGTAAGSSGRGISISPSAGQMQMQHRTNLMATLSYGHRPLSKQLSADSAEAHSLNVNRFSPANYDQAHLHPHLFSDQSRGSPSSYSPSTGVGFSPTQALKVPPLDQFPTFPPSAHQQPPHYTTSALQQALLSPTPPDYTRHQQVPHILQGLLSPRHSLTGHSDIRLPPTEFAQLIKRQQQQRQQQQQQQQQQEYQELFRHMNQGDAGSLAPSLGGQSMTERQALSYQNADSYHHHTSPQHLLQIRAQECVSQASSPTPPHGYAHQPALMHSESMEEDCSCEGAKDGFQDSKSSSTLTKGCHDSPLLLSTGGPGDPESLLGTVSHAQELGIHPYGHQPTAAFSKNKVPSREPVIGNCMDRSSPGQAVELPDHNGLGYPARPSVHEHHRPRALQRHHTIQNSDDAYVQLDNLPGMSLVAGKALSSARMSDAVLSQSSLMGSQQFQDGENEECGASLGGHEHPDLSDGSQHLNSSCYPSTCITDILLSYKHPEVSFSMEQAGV
Sequence of Mitogen-activated protein kinase kinase kinase kinase 4 (O95819 2-1239 limits assumed): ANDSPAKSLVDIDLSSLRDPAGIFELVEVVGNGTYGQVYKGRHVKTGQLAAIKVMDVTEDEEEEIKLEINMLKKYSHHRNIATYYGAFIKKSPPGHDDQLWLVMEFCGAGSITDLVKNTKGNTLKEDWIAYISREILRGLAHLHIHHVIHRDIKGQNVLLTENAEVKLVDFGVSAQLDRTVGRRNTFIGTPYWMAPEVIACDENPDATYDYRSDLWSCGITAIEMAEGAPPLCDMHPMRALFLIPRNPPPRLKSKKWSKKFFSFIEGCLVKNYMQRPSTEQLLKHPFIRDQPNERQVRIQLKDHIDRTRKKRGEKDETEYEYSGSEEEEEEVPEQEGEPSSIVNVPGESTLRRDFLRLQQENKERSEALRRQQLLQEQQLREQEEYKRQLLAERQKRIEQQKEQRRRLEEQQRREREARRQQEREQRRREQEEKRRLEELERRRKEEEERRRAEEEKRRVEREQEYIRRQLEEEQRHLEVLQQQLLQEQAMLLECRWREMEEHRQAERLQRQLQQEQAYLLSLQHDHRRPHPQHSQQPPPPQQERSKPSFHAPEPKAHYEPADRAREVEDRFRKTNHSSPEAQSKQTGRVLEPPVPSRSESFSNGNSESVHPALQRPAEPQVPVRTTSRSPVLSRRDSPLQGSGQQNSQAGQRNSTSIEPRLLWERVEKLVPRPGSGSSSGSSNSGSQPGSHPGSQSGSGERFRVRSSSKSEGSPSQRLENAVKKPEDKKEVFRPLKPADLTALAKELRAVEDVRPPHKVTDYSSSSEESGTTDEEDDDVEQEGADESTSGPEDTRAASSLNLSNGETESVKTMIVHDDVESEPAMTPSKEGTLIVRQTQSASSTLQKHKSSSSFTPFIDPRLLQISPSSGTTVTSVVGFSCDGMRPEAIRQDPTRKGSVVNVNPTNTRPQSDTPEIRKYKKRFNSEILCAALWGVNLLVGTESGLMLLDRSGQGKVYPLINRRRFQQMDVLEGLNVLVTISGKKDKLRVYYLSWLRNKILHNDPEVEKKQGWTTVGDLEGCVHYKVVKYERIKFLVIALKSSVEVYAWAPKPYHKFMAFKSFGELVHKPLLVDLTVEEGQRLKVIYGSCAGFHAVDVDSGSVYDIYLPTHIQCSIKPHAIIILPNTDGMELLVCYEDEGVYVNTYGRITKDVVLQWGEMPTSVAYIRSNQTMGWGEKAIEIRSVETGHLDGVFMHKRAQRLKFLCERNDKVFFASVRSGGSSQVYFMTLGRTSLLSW

`CCN(CC)CCCCNc1ncc2cc(-c3cc(OC)cc(OC)c3)c(NC(=O)NC(C)(C)C)nc2n1` gave a % of control [1] of 100%.

`COc1cc(N(C)c2ccnc3ccc(C(F)(F)F)cc23)cc(OC)c1OC` was tested, and the % binding [2] was 96%.

For `CN(C)CCOc1ccc(-c2nc(-c3ccncc3)c(-c3ccc4c(c3)CC/C4=N\O)[nH]2)cc1`, the % of control [3] was 94%.

For `C=CC(=O)Nc1ccc(C(=O)Nc2[nH]nc3c2CN(C(=O)N[C@H](CN(C)C)c2ccccc2)C3(C)C)cc1`, the % of engagement [4] was -0.3%.

Work on `Cc1cc(F)c(C(=O)Nc2cccc(-c3nncn3C(C)C)n2)cc1-n1cnc(C2CC2)c1` yielded a % of control [5] of 94%.

`COCC(=O)NC/C=C/c1ccc2ncnc(Nc3ccc(Oc4ccc(C)nc4)c(C)c3)c2c1` [CP-724714] showed a % of control [6] of 76%.

`Cn1cc(Nc2nccc(N3CC4CCC(C3)N4C(=O)[C@@H]3CC3(F)F)n2)cn1` was tested, and the % of inhibition [7] was 64%.

`Cc1cnc(Nc2ccc(F)cc2Cl)nc1-c1c[nH]c(C(=O)N[C@H](CO)c2cccc(Cl)c2)c1` gave a % of inhibition [8] of 43%.
